Experimental findings from ChEMBL document CHEMBL3627663, “Synthesis and evaluation of 1-hydroxy/methoxy-4-methyl-2-phenyl-1H-imidazole-5-carboxylic acid derivatives as non-purine xanthine oxidase inhibitors” (Eur J Med Chem, 2015) are described below.

Usually IC50 stands for the concentration needed to halve the response being measured. A higher IC50 goes with weaker potency.

Data set [1] has as its target T1, Xanthine dehydrogenase/oxidase (Bos taurus, UniProt P80457). Nature of the data set: Inhibition of bovine XO using xanthine as substrate after 120 mins by spectrophotometric analysis.
The target in data set [2] is T1, Xanthine dehydrogenase/oxidase. Nature of the data set: Inhibition of bovine XO at 10 ug/ml using xanthine as substrate after 120 mins by spectrophotometric analysis. Particulars: cattle, 2 h; call rule not given here.
Data set [3] shares this target. Nature of the data set: Ratio of Febuxostat IC50 to compound IC50 for bovine XO. The settings on record: cattle.
The target is the same in data set [4]. Nature of the data set: Mixed-type inhibition of bovine XO using xanthine as substrate by Lineweaver-Burk plot analysis. Particulars: cattle.

T1 sequence (P80457 whole entry): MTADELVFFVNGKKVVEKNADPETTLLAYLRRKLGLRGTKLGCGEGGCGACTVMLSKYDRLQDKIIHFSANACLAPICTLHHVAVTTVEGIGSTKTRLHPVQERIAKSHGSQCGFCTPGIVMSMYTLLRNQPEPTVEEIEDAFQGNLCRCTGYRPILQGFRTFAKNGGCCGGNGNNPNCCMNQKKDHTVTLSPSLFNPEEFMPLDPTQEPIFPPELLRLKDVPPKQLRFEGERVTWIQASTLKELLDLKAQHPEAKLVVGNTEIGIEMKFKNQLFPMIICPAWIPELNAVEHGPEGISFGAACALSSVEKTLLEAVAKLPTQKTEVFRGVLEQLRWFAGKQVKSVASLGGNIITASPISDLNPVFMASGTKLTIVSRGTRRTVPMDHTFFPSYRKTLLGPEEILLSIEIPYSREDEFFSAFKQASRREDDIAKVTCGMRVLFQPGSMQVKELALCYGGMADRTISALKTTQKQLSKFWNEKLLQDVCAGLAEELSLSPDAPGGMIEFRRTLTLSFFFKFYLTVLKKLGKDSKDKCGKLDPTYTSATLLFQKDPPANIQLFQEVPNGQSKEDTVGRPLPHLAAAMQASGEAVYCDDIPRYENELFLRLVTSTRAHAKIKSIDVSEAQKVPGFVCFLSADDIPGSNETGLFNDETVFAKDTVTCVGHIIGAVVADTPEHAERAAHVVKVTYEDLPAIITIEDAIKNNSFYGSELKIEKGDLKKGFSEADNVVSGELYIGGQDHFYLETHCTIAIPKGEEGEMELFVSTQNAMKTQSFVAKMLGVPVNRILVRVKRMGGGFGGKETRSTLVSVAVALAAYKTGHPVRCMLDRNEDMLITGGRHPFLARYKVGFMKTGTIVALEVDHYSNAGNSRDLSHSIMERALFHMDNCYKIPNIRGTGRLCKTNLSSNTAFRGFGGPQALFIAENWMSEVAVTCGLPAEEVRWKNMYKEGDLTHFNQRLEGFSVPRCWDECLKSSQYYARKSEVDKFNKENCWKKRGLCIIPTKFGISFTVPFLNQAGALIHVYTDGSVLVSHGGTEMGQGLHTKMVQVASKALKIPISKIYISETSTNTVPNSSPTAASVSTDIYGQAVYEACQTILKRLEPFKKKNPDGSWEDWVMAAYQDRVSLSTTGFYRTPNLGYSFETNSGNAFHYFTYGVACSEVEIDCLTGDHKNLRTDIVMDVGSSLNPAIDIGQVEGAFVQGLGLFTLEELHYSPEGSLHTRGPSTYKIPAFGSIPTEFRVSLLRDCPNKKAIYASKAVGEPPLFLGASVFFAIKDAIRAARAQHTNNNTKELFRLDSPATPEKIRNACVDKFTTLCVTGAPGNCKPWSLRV

As for `COc1ccc(-c2nc(C)c(C(=O)O)n2O)cc1C#N`, the IC50 in data set [1] was 550 nM. Moreover, the “inhibition (INH)” value in data set [2] came to 90.14%.
Taken in the same sequence, the figures for `CCCOc1ccc(-c2nc(C)c(C(=O)O)n2O)cc1C#N` were 130 nM and 89.77%.
As to `Cc1nc(-c2ccc(OC(C)C)c(C#N)c2)n(O)c1C(=O)O`, in data set [1], the IC50 was 170 nM. Also, in data set [2], the “inhibition (INH)” value was determined as 91.04%.
Regarding `CCCCOc1ccc(-c2nc(C)c(C(=O)O)n2O)cc1C#N`, in data set [1], the IC50 was 3 nM. Further, the “Ratio IC50” value in data set [3] came out at 3.3. Besides, in data set [2], the “inhibition (INH)” value is 89.57%.
In data set [1], `CCC(C)Oc1ccc(-c2nc(C)c(C(=O)O)n2O)cc1C#N` (stereo not drawn) came in with an IC50 of 3 nM. Further, in data set [3], the “Ratio IC50” value was determined as 3.3. In addition, the “inhibition (INH)” value in data set [2] is 88.33%.
As for `Cc1nc(-c2ccc(OCC(C)C)c(C#N)c2)n(O)c1C(=O)O`, the midpoint of inhibition in data set [1], the IC50, lay at 6 nM. Further, the “inhibition (INH)” value was “Dose-dependent effect” in data set [1] (cattle, 2 h); “Active” in data set [4]; 94.08% in data set [2]. Also, the “Ratio IC50” value in data set [3] is 1.7.
In turn, `Cc1nc(-c2ccc(OCCC(C)C)c(C#N)c2)n(O)c1C(=O)O` showed a concentration for half-maximal inhibition (IC50) in data set [1] of 30 nM. Further, the “inhibition (INH)” value in data set [2] is recorded as 91.25%.
The like results for `CCCCCCOc1ccc(-c2nc(C)c(C(=O)O)n2O)cc1C#N` were, in that order, 30 nM and 92.51%.
The like results for `CCCCCCCOc1ccc(-c2nc(C)c(C(=O)O)n2O)cc1C#N` were, in that order, 110 nM and 89.93%.
On to `CCCCCCCCOc1ccc(-c2nc(C)c(C(=O)O)n2O)cc1C#N`, for which the half-inhibitory concentration (IC50) in data set [1] was found to be 1200 nM. The “inhibition (INH)” value in data set [2] is 88.17%.
On to `Cc1ccc(COc2ccc(-c3nc(C)c(C(=O)O)n3O)cc2C#N)cc1`, for which the IC50 in data set [1] turned out to be 110 nM. Besides, in data set [2], the “inhibition (INH)” value amounted to 91.65%.
With `COc1ccc(-c2nc(C)c(C(=O)O)n2OC)cc1C#N`, the “inhibition (INH)” value in data set [2] was 10.68%.
Still for that read-out and setting: next, `CCCOc1ccc(-c2nc(C)c(C(=O)O)n2OC)cc1C#N`: 18.34%; `COn1c(-c2ccc(OC(C)C)c(C#N)c2)nc(C)c1C(=O)O`: 32.91%; `CCCCOc1ccc(-c2nc(C)c(C(=O)O)n2OC)cc1C#N`: 41.19%.
The compound `CCC(C)Oc1ccc(-c2nc(C)c(C(=O)O)n2OC)cc1C#N` (stereo not drawn) came in with a concentration for half-maximal inhibition (IC50) in data set [1] of 1500 nM. Also, in data set [2], the “inhibition (INH)” value stood at 83.13%.
On to `COn1c(-c2ccc(OCC(C)C)c(C#N)c2)nc(C)c1C(=O)O`, for which, in data set [2], the “inhibition (INH)” value amounted to 31.91%.
In data set [1], `COn1c(-c2ccc(OCCC(C)C)c(C#N)c2)nc(C)c1C(=O)O` showed an IC50 of 8000 nM. In addition, the “inhibition (INH)” value in data set [2] is 59.55%.
Taken in the same sequence, the figures for `CCCCCCOc1ccc(-c2nc(C)c(C(=O)O)n2OC)cc1C#N` were 3900 nM and 80.34%.
Regarding `CCCCCCCOc1ccc(-c2nc(C)c(C(=O)O)n2OC)cc1C#N`, in data set [2], the “inhibition (INH)” value was found to be 26.8%.
Take `CCCCCCCCOc1ccc(-c2nc(C)c(C(=O)O)n2OC)cc1C#N`: the “inhibition (INH)” value in data set [2] came out at 19%.
Consider `COn1c(-c2ccc(OCc3ccc(C)cc3)c(C#N)c2)nc(C)c1C(=O)O`, for which the IC50 in data set [1] is 1100 nM. Besides, in data set [2], the “inhibition (INH)” value amounted to 86.72%.
On to `Cc1nc(-c2ccc(OCC(C)C)c(C#N)c2)sc1C(=O)O` [FEBUXOSTAT], for which, in data set [2], the “inhibition (INH)” value was determined as 90.89%.
